For orientation: EC50 means the concentration that produces a half-maximal response. A word on the IC50: it is the concentration that gives 50% inhibition.

Results on 22 compounds are retold here after patent US20060258598A1, “Alpha-keto carbonyl calpain inhibitors” (priority 2003, published 2006).

The subject of assay [1] is Primary fibroblasts from donors with Friedreich Ataxia (FRDA). The experiment in a line: BSO assay (cell viability under BSO-induced oxidative stress). The assay is classed as cell-based, human. The following applies: 24 h preincubation, 1 mM BSO; for EC50: Homo sapiens, Fibroblast. As for the experimental part:
Primary fibroblasts were derived from donors with molecular diagnosis for Friedreich Ataxia (FRDA) and control donors with no mitochondrial disease. Cell lines were obtained from Coriell Cell Repositories (Camden, N.J.; catalog numbers GM04078, GM08402 and GM08399 respectively). All cell types were diagnosed on the molecular level for intronic […] triplet repeat length of at least 400-450 repeats using a PCR-based method. Experiments were carried out as described in the literature (M. L. Jauslin et al., Human Mol. Genet., 2002, 11, 3055-3063): Cells were seeded in microtiter plates at a density of 4'000 cells per 100 μl in growth medium consisting of 25% (v/v) M199 EBS and 64% (v/v) MEM EBS without phenol red (Bioconcept, Allschwil, Switzerland) supplemented with 10% (v/v) fetal calf serum (PAA Laboratories, Linz, Austria), 100 U/ml penicillin, 100 μg/ml streptomycin (PAA Laboratories, Linz, Austria), 10 μg/ml insulin (Sigma, Buchs, Switzerland), 10 ng/ml EGF (Sigma, Buchs, Switzerland), 10 ng/ml bFGF (PreproTech, Rocky Hill, N.J.) and 2 mM glutamine (Sigma, Buchs, Switzerland). The cells were incubated in the presence of various test compounds for 24 h before addition of L-buthionine-(S,R)-sulfoximine (BSO) to a final concentration of 1 mM. Cell viability was measured after the first signs of toxicity appeared in the BSO-treated controls (typically after 16 to 48 h). The cells were stained for 60 min at room temperature in PBS with 1.2 μM calcein AM and 4 μM ethidium homodimer (Live/Dead assay, Molecular Probes, Eugene, Oreg.). Fluorescence intensity was measured with a Gemini Spectramax XS spectrofluorimeter (Molecular Devices, Sunnyvale, Calif.) using excitation and emission wavelengths of 485 nm and 525 nm respectively.

For assay [2], the target named is T1, human μ-calpain (Homo sapiens, UniProt P07384).
T1 construct: purchased Calbiochem
T1 sequence (P07384 1-714): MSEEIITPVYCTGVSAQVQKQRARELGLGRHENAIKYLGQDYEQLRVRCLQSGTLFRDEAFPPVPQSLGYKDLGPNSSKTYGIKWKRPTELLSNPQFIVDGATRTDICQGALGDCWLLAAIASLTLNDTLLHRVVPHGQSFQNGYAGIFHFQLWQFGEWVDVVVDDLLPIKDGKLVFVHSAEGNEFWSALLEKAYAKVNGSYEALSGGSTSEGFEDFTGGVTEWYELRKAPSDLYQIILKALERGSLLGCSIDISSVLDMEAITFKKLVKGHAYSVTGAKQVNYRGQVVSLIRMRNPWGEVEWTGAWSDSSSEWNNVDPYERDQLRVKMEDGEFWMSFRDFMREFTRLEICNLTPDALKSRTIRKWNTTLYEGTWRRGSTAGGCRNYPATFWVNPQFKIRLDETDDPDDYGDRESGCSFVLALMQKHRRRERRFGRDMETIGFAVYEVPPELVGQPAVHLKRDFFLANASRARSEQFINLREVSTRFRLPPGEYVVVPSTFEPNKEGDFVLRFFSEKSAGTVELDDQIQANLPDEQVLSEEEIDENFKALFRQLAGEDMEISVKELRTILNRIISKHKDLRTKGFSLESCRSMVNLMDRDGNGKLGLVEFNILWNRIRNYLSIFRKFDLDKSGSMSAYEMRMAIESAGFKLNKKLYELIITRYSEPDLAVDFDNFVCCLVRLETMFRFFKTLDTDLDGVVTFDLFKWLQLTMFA
T1 sequence (P04632 1-268 partner): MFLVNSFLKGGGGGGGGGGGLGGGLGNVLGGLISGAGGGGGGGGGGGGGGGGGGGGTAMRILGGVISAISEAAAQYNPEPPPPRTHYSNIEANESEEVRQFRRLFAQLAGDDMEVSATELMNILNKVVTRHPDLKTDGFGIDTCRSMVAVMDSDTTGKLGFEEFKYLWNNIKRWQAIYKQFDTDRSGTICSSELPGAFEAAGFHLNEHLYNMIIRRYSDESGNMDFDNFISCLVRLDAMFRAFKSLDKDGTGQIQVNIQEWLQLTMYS
The experiment in a line: Enzymatic calpain inhibition assay. In kind it is biochemical. The conditions noted are these: substrate Suc-Leu-Tyr-AMC, read-out: Calp I IC50. As to the method:
The Ki value was also determined in some cases. These criteria were used to measure the inhibitory effect of the compounds (I) on calpain I, calpain II and cathepsin B.
Enzymatic Calpain Inhibition Assay
The inhibitory properties of calpain inhibitors are tested in 100 μl of a buffer containing 100 mM imidazole pH 7.5, 5 mM L-Cystein-HCl, 5 mM CaCl2, 250 μM of the calpain fluorogenic substrate Suc-Leu-Tyr-AMC (Sigma) (Sasaki et al., J. Biol. Chem., 1984, 259, 12489-12949) dissolved in 2.5 μl DMSO and 0.5 μg of human μ-calpain (Calbiochem). The inhibitors dissolved in 1 μl DMSO are added to the reaction buffer. The fluorescence of the cleavage product 7-amino-4-methylcoumarin (AMC) is followed in a SPECTRAmax GEMINI XS (Molecular Device) fluorimeter at λex=360 nm and λem=440 nm at 30° C. during 30 min at intervals of 30 sec in 96-well plates (Greiner). The initial reaction velocity at different inhibitor concentrations is plotted against the inhibitor concentration and the IC50 values determined graphically.

Assay [3] deals with cellular calpains in C2C12 myoblasts. Put plainly: Calpain inhibition assay in C2C12 myoblasts. In kind it is cell-based. The conditions noted are these: 2 h incubation, calcium ionophore Br-A-23187, read-out: Calp I IC50 Myoblast. As for the experimental part:
Calpain Inhibition Assay in C2C12 Myoblasts
This assay is aimed at monitoring the ability of the substance to inhibit cellular calpains. C2C12 myoblasts are grown in 96-well plates in growth medium (DMEM, 20% foetal calf serum) until they reach confluency. The growth medium is then replaced by fusion medium (DMEM, 5% horse serum). 24 hours later the fusion medium is replaced by fusion medium containing the test substances dissolved in 1 μl DMSO. After 2 hours of incubation at 37° C. the cells are loaded with the calpain fluorogenic substrate Suc-Leu-Tyr-AMC at 400 μM in 50 μl of a reaction buffer containing 135 mM NaCl; 5 mM KCl; 4 mM CaCl2; 1 mM MgCl2; 10 mM Glucose; 10 mM HEPES pH 7.25 for 20 min at room temperature. The calcium influx, necessary to activate the cellular calpains, is evoked by the addition of 50 μl reaction buffer containing 20 μM of the calcium ionophore Br-A-23187 (Molecular Probes). The fluorescence of the cleavage product AMC is measured as described above during 60 min at 37° C. at intervals of 1 min. The IC50 values are determined as described above. Comparison of the IC50 determined in the enzymatic calpain inhibition assay to the IC50 determined in the C2C12 myoblasts calpain inhibiton assay, allows to evaluate the cellular uptake or the membrane permeability of the substance.

The structures appear in SMILES notation.

On to `CCNC(=O)C(=O)[C@H](Cc1ccc(C#N)cc1)NC(=O)[C@@H](NC(=O)CCCCC1CCSS1)C(C)C` (stereo partly drawn) [Example 130], for which a half-maximal response in assay [1] (EC50) required 20 µM. For the same compound, the IC50 in assay [2] was 120 nM; in assay [3], 5 µM.
Compound `CCNC(=O)C(=O)[C@H](Cc1ccc(C#N)cc1)NC(=O)[C@@H](NC(=O)CCCCC1CCS[S+]1[O-])C(C)C` (stereo partly drawn) [Example 131] registered an EC50 in assay [1] of 30 µM. In addition, the IC50 in assay [2] was 180 nM; in assay [3], 7.5 µM.
Consider `CCNC(=O)C(=O)[C@H](Cc1ccc(C#N)cc1)NC(=O)[C@H](CC(C)C)NC(=O)CCCCC1CCSS1` (stereo partly drawn) [Example 132], for which, in assay [1], the EC50 was found to be 5 µM. For the same compound, the IC50 stood at 30 nM in assay [2] and 1.7 µM in assay [3].
On to `CCNC(=O)C(=O)[C@H](Cc1ccc(C#N)cc1)NC(=O)[C@H](CC(C)C)NC(=O)CCCCC1CCS[S+]1[O-]` (stereo partly drawn) [Example 133], for which the EC50 in assay [1] came out at 15 µM. The IC50 came to 50 nM in assay [2] and 2.5 µM in assay [3].
For the compound `CCNC(=O)C(=O)[C@H](Cc1ccc([N+](=O)[O-])cc1)NC(=O)[C@H](CC(C)C)NC(=O)CCCCC1CCSS1` (stereo partly drawn) [Example 136], in assay [1], the “BSO EC50” value was “inactive”. The IC50 in assay [2] came to 20 nM; in assay [3] it was 8 µM.
The compound `CCNC(=O)C(=O)[C@H](Cc1ccccc1)NC(=O)[C@@H](NC(=O)CCCCC1CCSS1)C(C)C` (stereo partly drawn) [Example 138] registered an EC50 in assay [1] of 10 µM. Moreover, the results for the IC50 in assay [2] and in assay [3] were 80 nM and 3.5 µM, respectively.
Regarding `CCNC(=O)C(=O)[C@H](Cc1ccccc1)NC(=O)[C@H](CC(C)C)NC(=O)CCCCC1CCS[S+]1[O-]` (stereo partly drawn) [Example 142], the EC50 in assay [1] came out at 3 µM. Moreover, the IC50 in assay [2] turned out to be 100 nM; in assay [3] it was 20 µM.
On to `CCNC(=O)C(=O)[C@H](Cc1ccccc1)NC(=O)[C@H](CC(C)(C)C)NC(=O)CCCCC1CCSS1` (stereo partly drawn) [Example 143], for which the response in assay [1] was half-maximal at 2 µM (EC50). Also, the results for the IC50 in assay [2] and in assay [3] were 120 nM and 10 µM, respectively.
For `CCNC(=O)C(=O)[C@H](Cc1ccccc1)NC(=O)[C@H](CC(C)(C)C)NC(=O)CCCCC1CCS[S+]1[O-]` (stereo partly drawn) [Example 144], the EC50 in assay [1] is 7 µM. The IC50 was found to be 80 nM in assay [2] and 5 µM in assay [3].
On to `CCNC(=O)C(=O)[C@H](Cc1cccs1)NC(=O)[C@@H](NC(=O)CCCCC1CCSS1)C(C)C` (stereo partly drawn) [Example 145], for which the EC50 in assay [1] came out at 1.5 µM. Moreover, the IC50 in assay [2] was found to be 100 nM; in assay [3], 6 µM.
As to `CCNC(=O)C(=O)[C@H](Cc1cccs1)NC(=O)[C@H](CC(C)C)NC(=O)CCCCC1CCSS1` (stereo partly drawn) [Example 147], it took 1.5 µM to reach a half-maximal effect in assay [1] (EC50). In addition, the IC50 in assay [2] came to 40 nM; in assay [3], 2.5 µM.
Turning to `CCNC(=O)C(=O)[C@@H](NC(=O)[C@@H](NC(=O)CCCCC1CCSS1)C(C)C)c1ccccc1` (stereo partly drawn) [Example 153], the EC50 in assay [1] came out at 2.5 µM. The IC50 was 400 nM in assay [2] and 2 µM in assay [3].
Consider `CCNC(=O)C(=O)[C@H](Cc1ccc(Cl)cc1)NC(=O)[C@@H](NC(=O)CCCCC1SC[C@@H]2NC(=O)N[C@H]12)C(C)C` (stereo partly drawn) [Example 159], for which the “BSO EC50” value in assay [1] was “inactive”. In addition, the IC50 in assay [2] is 100 nM; in assay [3] it was 5 µM.
With `CCNC(=O)C(=O)[C@H](Cc1ccc(OC)cc1)NC(=O)[C@@H](NC(=O)CCCCC1SC[C@@H]2NC(=O)N[C@H]12)C(C)C` (stereo partly drawn) [Example 165], a half-maximal response in assay [1] (EC50) required 60 µM. In addition, the figures for the 50% inhibitory concentration (IC50) in assay [2] and in assay [3] were 85 nM and 11 µM, respectively.
Compound `CCNC(=O)C(=O)[C@H](Cc1ccc(Cl)cc1)NC(=O)[C@@H](NC(=O)CCNC(=O)CCCCC1CCSS1)C(C)C` (stereo partly drawn) [Example 172] displayed an EC50 in assay [1] of 3 µM. Besides, the IC50 in assay [2] was determined as 40 nM; in assay [3] it was 30 µM.
In turn, `CCNC(=O)C(=O)[C@H](Cc1ccc(Cl)cc1)NC(=O)[C@@H](NC(=O)CCNC(=O)CCCCC1CCS[S+]1[O-])C(C)C` (stereo partly drawn) [Example 173] showed an EC50 in assay [1] of 25 µM. In addition, the results for the IC50 in assay [2] and in assay [3] were 200 nM and 40 µM, respectively.
In turn, `CCNC(=O)C(=O)[C@H](Cc1ccc(Cl)cc1)NC(=O)[C@@H](NC(=O)CCCNC(=O)CCCCC1CCSS1)C(C)C` (stereo partly drawn) [Example 174] had an EC50 in assay [1] of 6 µM. Besides, the IC50 turned out to be 20 nM in assay [2] and 2.5 µM in assay [3].
As to `CCNC(=O)C(=O)[C@H](Cc1ccc(Cl)cc1)NC(=O)[C@@H](NC(=O)CCCCNC(=O)CCCCC1CCSS1)C(C)C` (stereo partly drawn) [Example 175], the EC50 in assay [1] was > 100 µM. Further, the IC50 was found to be 100 nM in assay [2] and 20 µM in assay [3].
As to `CCNC(=O)C(=O)[C@H](Cc1ccc(Cl)cc1)NC(=O)[C@H](CC(C)C)NC(=O)CNC(=O)CCCCC1CCSS1` (stereo partly drawn) [Example 176], in assay [1], the EC50 was 20 µM. Moreover, the IC50 was 40 nM in assay [2] and 2.5 µM in assay [3].
The matching figures for `CCNC(=O)C(=O)[C@H](Cc1ccc(Cl)cc1)NC(=O)[C@H](CC(C)C)NC(=O)CNC(=O)CCCCC1CCS[S+]1[O-]` (stereo partly drawn) [Example 177]: 6 µM, 9 nM and 2.5 µM.
In the same order, the values of `CCNC(=O)C(=O)[C@H](Cc1ccc(Br)cc1)NC(=O)[C@@H](NC(=O)CNC(=O)CCCCC1CCS[S+]1[O-])C(C)C` (stereo partly drawn) [Example 184] are 10 µM, 100 nM and 5.5 µM.
Take `CCNC(=O)C(=O)[C@H](Cc1ccc(Br)cc1)NC(=O)[C@H](CC(C)C)NC(=O)CNC(=O)CCCCC1CCSS1` (stereo partly drawn) [Example 186]: the EC50 in assay [1] was 5 µM. Further, the IC50 in assay [2] was found to be 40 nM; in assay [3], 1.5 µM.
